In PubChem BioAssay (NCI):
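Assay format: 96-well plates, 48-hour exposure. TGI marks complete inhibition of growth.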

Key:
Experiment in all cases: growth of human tumour cells (NCI), 48 h
786-0 renal = system: 786-0 renal
A549 NSCLC = system: A549 NSCLC
ACHN renal = system: ACHN renal
CAKI-1 renal = system: CAKI-1 renal
CCRF-CEM leukemia = system: CCRF-CEM leukemia
COLO 205 colon = system: COLO 205 colon
DU-145 prostate = system: DU-145 prostate
HCT-116 colon = system: HCT-116 colon
HCT-15 colon = system: HCT-15 colon
HL-60(TB) leukemia = system: HL-60(TB) leukemia
HOP-62 NSCLC = system: HOP-62 NSCLC
HOP-92 NSCLC = system: HOP-92 NSCLC
HS 578T breast = system: HS 578T breast
HT29 colon = system: HT29 colon
IGROV1 ovarian = system: IGROV1 ovarian
K-562 leukemia = system: K-562 leukemia
KM12 colon = system: KM12 colon
LOX IMVI melanoma = system: LOX IMVI melanoma
M14 melanoma = system: M14 melanoma
MCF7 breast = system: MCF7 breast
MDA-MB-231 breast = system: MDA-MB-231 breast
MDA-MB-435 = system: MDA-MB-435
MDA-N = system: MDA-N
MOLT-4 leukemia = system: MOLT-4 leukemia
NCI-H226 lung = system: NCI-H226 lung
NCI-H23 lung = system: NCI-H23 lung
NCI-H460 lung = system: NCI-H460 lung
NCI-H522 lung = system: NCI-H522 lung
NCI/ADR-RES ovarian = system: NCI/ADR-RES ovarian
OVCAR-3 ovarian = system: OVCAR-3 ovarian
OVCAR-5 ovarian = system: OVCAR-5 ovarian
OVCAR-8 ovarian = system: OVCAR-8 ovarian
PC-3 prostate = system: PC-3 prostate
RPMI-8226 leukemia = system: RPMI-8226 leukemia
RXF 393 renal = system: RXF 393 renal
SF-268 CNS = system: SF-268 CNS
SF-295 CNS = system: SF-295 CNS
SF-539 CNS = system: SF-539 CNS
SK-MEL-2 melanoma = system: SK-MEL-2 melanoma
SK-MEL-5 melanoma = system: SK-MEL-5 melanoma
SK-OV-3 ovarian = system: SK-OV-3 ovarian
SN12C renal = system: SN12C renal
SNB-19 CNS = system: SNB-19 CNS
SR leukemia = system: SR leukemia
SW-620 colon = system: SW-620 colon
T-47D breast = system: T-47D breast
U251 CNS = system: U251 CNS
UACC-257 melanoma = system: UACC-257 melanoma
UACC-62 melanoma = system: UACC-62 melanoma
UO-31 renal = system: UO-31 renal
A498 renal = system: A498 renal
EKVX NSCLC = system: EKVX NSCLC
OVCAR-4 ovarian = system: OVCAR-4 ovarian
SK-MEL-28 melanoma = system: SK-MEL-28 melanoma
SNB-75 CNS = system: SNB-75 CNS
TK-10 renal = system: TK-10 renal
HCC-2998 colon = system: HCC-2998 colon
MALME-3M melanoma = system: MALME-3M melanoma

## COc1ccccc1-c1cc(=O)c2ccccc2n1C1CC1
786-0 renal
  TGI: 15.3 µM
A549 NSCLC
  TGI: 12.8 µM
ACHN renal
  TGI: 5.78 µM
CAKI-1 renal
  TGI: 14.1 µM
CCRF-CEM leukemia
  TGI: 56.1 µM
COLO 205 colon
  TGI: 11.1 µM
DU-145 prostate
  TGI: 14.4 µM
HCT-116 colon
  TGI: 10.4 µM
HCT-15 colon
  TGI: 12.2 µM
HL-60(TB) leukemia
  TGI: 35.5 µM
HOP-62 NSCLC
  TGI: 15.4 µM
HOP-92 NSCLC
  TGI: 19.8 µM
HS 578T breast
  TGI: 25.7 µM
HT29 colon
  TGI: 4.37 µM
IGROV1 ovarian
  TGI: 44 µM
K-562 leukemia
  TGI: > 100 µM
KM12 colon
  TGI: 12 µM
LOX IMVI melanoma
  TGI: 15.5 µM
M14 melanoma
  TGI: 16.2 µM
MCF7 breast
  TGI: 18.7 µM
MDA-MB-231 breast
  TGI: 16 µM
MDA-MB-435
  TGI: 12.5 µM
MDA-N
  TGI: 18 µM
MOLT-4 leukemia
  TGI: 45.9 µM
NCI-H226 lung
  TGI: 15 µM
NCI-H23 lung
  TGI: 22.8 µM
NCI-H460 lung
  TGI: 15.7 µM
NCI-H522 lung
  TGI: 5.63 µM
NCI/ADR-RES ovarian
  TGI: 31.3 µM
OVCAR-3 ovarian
  TGI: 11 µM
OVCAR-5 ovarian
  TGI: 14.2 µM
OVCAR-8 ovarian
  TGI: 18.1 µM
PC-3 prostate
  TGI: 27.8 µM
RPMI-8226 leukemia
  TGI: 5.64 µM
RXF 393 renal
  TGI: 6.62 µM
SF-268 CNS
  TGI: 20.5 µM
SF-295 CNS
  TGI: 7.99 µM
SF-539 CNS
  TGI: 16.5 µM
SK-MEL-2 melanoma
  TGI: 8.07 µM
SK-MEL-5 melanoma
  TGI: 14.8 µM
SK-OV-3 ovarian
  TGI: 41.1 µM
SN12C renal
  TGI: 19.5 µM
SNB-19 CNS
  TGI: 34.3 µM
SR leukemia
  TGI: 18.7 µM
SW-620 colon
  TGI: 15.8 µM
T-47D breast
  TGI: 9.73 µM
U251 CNS
  TGI: 14.2 µM
UACC-257 melanoma
  TGI: 26.6 µM
UACC-62 melanoma
  TGI: 11.5 µM
UO-31 renal
  TGI: 19 µM

## C=CCCC1CCCCC/C1=N\N(C)C (stereo unspecified)
786-0 renal
  TGI: > 100 µM
A498 renal
  TGI: > 100 µM
A549 NSCLC
  TGI: > 100 µM
ACHN renal
  TGI: > 100 µM
CAKI-1 renal
  TGI: > 100 µM
CCRF-CEM leukemia
  TGI: > 100 µM
COLO 205 colon
  TGI: > 100 µM
DU-145 prostate
  TGI: > 100 µM
EKVX NSCLC
  TGI: > 100 µM
HCT-116 colon
  TGI: > 100 µM
HCT-15 colon
  TGI: > 100 µM
HL-60(TB) leukemia
  TGI: > 100 µM
HOP-62 NSCLC
  TGI: > 100 µM
HOP-92 NSCLC
  TGI: > 100 µM
HS 578T breast
  TGI: > 100 µM
HT29 colon
  TGI: > 100 µM
IGROV1 ovarian
  TGI: > 100 µM
K-562 leukemia
  TGI: > 100 µM
KM12 colon
  TGI: > 100 µM
LOX IMVI melanoma
  TGI: > 100 µM
M14 melanoma
  TGI: > 100 µM
MCF7 breast
  TGI: > 100 µM
MDA-MB-231 breast
  TGI: > 100 µM
MDA-MB-435
  TGI: > 100 µM
MDA-N
  TGI: > 100 µM
MOLT-4 leukemia
  TGI: > 100 µM
NCI-H226 lung
  TGI: > 100 µM
NCI-H23 lung
  TGI: > 100 µM
NCI-H460 lung
  TGI: > 100 µM
NCI-H522 lung
  TGI: > 100 µM
NCI/ADR-RES ovarian
  TGI: > 100 µM
OVCAR-3 ovarian
  TGI: > 100 µM
OVCAR-4 ovarian
  TGI: > 100 µM
OVCAR-5 ovarian
  TGI: > 100 µM
OVCAR-8 ovarian
  TGI: > 100 µM
PC-3 prostate
  TGI: > 100 µM
RPMI-8226 leukemia
  TGI: > 100 µM
SF-268 CNS
  TGI: > 100 µM
SF-295 CNS
  TGI: > 100 µM
SF-539 CNS
  TGI: > 100 µM
SK-MEL-2 melanoma
  TGI: > 100 µM
SK-MEL-28 melanoma
  TGI: > 100 µM
SK-MEL-5 melanoma
  TGI: > 100 µM
SK-OV-3 ovarian
  TGI: > 100 µM
SN12C renal
  TGI: > 100 µM
SNB-19 CNS
  TGI: > 100 µM
SNB-75 CNS
  TGI: > 100 µM
SR leukemia
  TGI: > 100 µM
SW-620 colon
  TGI: > 100 µM
T-47D breast
  TGI: > 100 µM
TK-10 renal
  TGI: > 100 µM
U251 CNS
  TGI: > 100 µM
UACC-257 melanoma
  TGI: > 100 µM
UACC-62 melanoma
  TGI: > 100 µM
UO-31 renal
  TGI: > 100 µM

## Clc1ccc(C2ON=C(c3ccccc3)N2C23CC4CC(CC(C4)C2)C3)c(Cl)c1 (stereo unspecified)
786-0 renal
  TGI: > 10 µM
A498 renal
  TGI: > 10 µM
A549 NSCLC
  TGI: > 10 µM
ACHN renal
  TGI: > 10 µM
CAKI-1 renal
  TGI: > 10 µM
CCRF-CEM leukemia
  TGI: > 10 µM
COLO 205 colon
  TGI: > 10 µM
DU-145 prostate
  TGI: > 10 µM
EKVX NSCLC
  TGI: > 10 µM
HCC-2998 colon
  TGI: > 10 µM
HCT-116 colon
  TGI: > 10 µM
HCT-15 colon
  TGI: > 10 µM
HOP-62 NSCLC
  TGI: > 10 µM
HOP-92 NSCLC
  TGI: > 10 µM
HS 578T breast
  TGI: > 10 µM
HT29 colon
  TGI: > 10 µM
IGROV1 ovarian
  TGI: > 10 µM
K-562 leukemia
  TGI: > 10 µM
KM12 colon
  TGI: > 10 µM
LOX IMVI melanoma
  TGI: > 10 µM
M14 melanoma
  TGI: > 10 µM
MALME-3M melanoma
  TGI: > 10 µM
MCF7 breast
  TGI: > 10 µM
MDA-MB-231 breast
  TGI: > 10 µM
MDA-MB-435
  TGI: > 10 µM
MDA-N
  TGI: > 10 µM
MOLT-4 leukemia
  TGI: > 10 µM
NCI-H226 lung
  TGI: > 10 µM
NCI-H23 lung
  TGI: > 10 µM
NCI-H460 lung
  TGI: > 10 µM
NCI-H522 lung
  TGI: > 10 µM
NCI/ADR-RES ovarian
  TGI: > 10 µM
OVCAR-3 ovarian
  TGI: > 10 µM
OVCAR-4 ovarian
  TGI: > 10 µM
OVCAR-5 ovarian
  TGI: > 10 µM
OVCAR-8 ovarian
  TGI: > 10 µM
PC-3 prostate
  TGI: > 10 µM
RPMI-8226 leukemia
  TGI: > 10 µM
RXF 393 renal
  TGI: > 10 µM
SF-268 CNS
  TGI: > 10 µM
SF-295 CNS
  TGI: > 10 µM
SF-539 CNS
  TGI: > 10 µM
SK-MEL-2 melanoma
  TGI: > 10 µM
SK-MEL-28 melanoma
  TGI: > 10 µM
SK-MEL-5 melanoma
  TGI: > 10 µM
SK-OV-3 ovarian
  TGI: > 10 µM
SN12C renal
  TGI: > 10 µM
SNB-19 CNS
  TGI: > 10 µM
SNB-75 CNS
  TGI: > 10 µM
SW-620 colon
  TGI: > 10 µM
T-47D breast
  TGI: > 10 µM
TK-10 renal
  TGI: > 10 µM
U251 CNS
  TGI: > 10 µM
UACC-257 melanoma
  TGI: > 10 µM
UACC-62 melanoma
  TGI: > 10 µM
UO-31 renal
  TGI: > 10 µM
